The subject of series [1] is Rattus norvegicus. The series is described as follows: Effective dose was measured in rats using maximal electroshock seizure test(ip); showed no protection up to 100 mg/kg (i.p. dose). The series is classed as functional, organism-based. Set-up: dose 100 mg/kg. (Protection in the maximal electroshock model is a classic sign of anticonvulsant action.)
Series [2] relates to Rattus norvegicus. The series is described as follows: Effective dose was measured in rats using maximal electroshock seizure test(ip); showed no protection up to 120 mg/kg (i.p. dose). In kind it is functional, organism-based. Set-up: dose 120 mg/kg.
Series [3] is filed under the species Rattus norvegicus. As to the kind of experiment: % protection was measured in rats using maximal electroshock seizure test. The series is classed as functional.
Series [4] deals with Rattus norvegicus. As to the kind of experiment: % protection was measured in rats using subcutaneous pentylenetetrazole seizure test. The series is classed as functional. Set-up: concentration or dose not given beside the values.
The species named for series [5] is Rattus norvegicus. As to the kind of experiment: Effective dose was measured in rats using maximal electroshock seizure test. The series is classed as functional.
For series [6], the system named is Rattus norvegicus. The series is described as follows: Effective dose was measured in rats using subcutaneous pentylenetetrazole seizure test. In kind it is functional. As to conditions: sc.
The species entered for series [7] is Rattus norvegicus. As to the kind of experiment: The activity was measured by using barbiturate hypnosis potentiation effect test. The series is classed as functional.
The species entered for series [8] is Rattus norvegicus. The series is described as follows: % protection was measured in rats using maximal electroshock seizure test; p<0.05. In kind it is functional.
Series [9] has as its system Rattus norvegicus. As to the kind of experiment: Sleeping time was determined in rats after administration of compound; p<0.05. The series is classed as functional.
Series [10] is described as follows: Acute toxicity was measured in rats using maximal electroshock seizure test. The settings on record: rat, in vivo.
Series [11] concerns Rattus norvegicus. The series is described as follows: Sleeping time was determined in rats after administration of compound; NS non-significant. The series is classed as functional.
Series [12] is described as follows: Tested for therapeutic index of compound (LD50/MES ED50). The settings on record: rat; read-out: TI.
In series [13] the test system is Rattus norvegicus. As to the kind of experiment: Sleeping time was determined in rats after administration of compound; non-significant. In kind it is functional.
Series [14] has as its system Rattus norvegicus. The series is described as follows: Sleeping time was determined in rats at 30 mg/kg intraperitoneal dose. In kind it is functional.
The species named for series [15] is Rattus norvegicus. The series is described as follows: % protection was measured in rats using maximal electroshock seizure test; p<0.01. In kind it is functional.
In series [16] the test system is Rattus norvegicus. As to the kind of experiment: % protection was measured in rats using subcutaneous pentylenetetrazole seizure test; p<0.05. In kind it is functional.

The values that follow come from ChEMBL document CHEMBL1127205, “Synthesis and anticonvulsant activity of 3-arylamino-4-aryl-5-(N-4-chlorophenylthiocarbamido)-1,2,4-thiadiazoles” (Bioorg Med Chem Lett, 1993).

As usually defined, the ED50 is the midpoint of the dose-response relation. One may read the LD50 as the dose expected to kill half of the subjects tested.

For `Cc1cccc(Nc2ns/c(=N\C(S)=N\c3ccc(Cl)cc3)n2-c2cccc(C)c2)c1`, the ED50 entry in [1] and in series [2] was “no protection up to 100 mg/kg” in each case. Besides, the Protection in series [3] and in series [4] was 0% throughout.
As to `O=C1NC(=O)C(c2ccccc2)(c2ccccc2)N1` [PHENYTOIN], the ED50 in series [5] was found to be 9.5 mg/kg; in series [6], 100 mg/kg. Moreover, the Hypnosis potentiation in series [7] was 54.02%. Besides, the Protection amounted to 75% in series [8] and 37.5% in series [4]. Besides, in [9], the Sleeping time was found to be 100.5 min. The 50% lethal dose (LD50) in series [10] is 65.5 mg/kg.
For the compound `COc1ccc(Nc2ns/c(=N\C(S)=N\c3ccc(Cl)cc3)n2-c2ccc(OC)cc2)cc1`, the ED50 was 20.3 mg/kg in series [5] and 150 mg/kg in [6]. Further, the Hypnosis potentiation in [7] is given as 3.14%. The values for the Protection in [3] and in [4] were 50% and 0%, respectively. Also, the Sleeping time in series [11] came to 67.3 min. Further, in series [12], the selectivity ratio turned out to be 10.3. Also, the median lethal dose (LD50) in series [10] was determined as 210 mg/kg.
Take `S=C(/N=c1\snc(Nc2cccc(Cl)c2)n1-c1cccc(Cl)c1)Nc1ccc(Cl)cc1`: the values for the 50% effective dose (ED50) in [5] and in series [6] were 17.5 mg/kg and 26.2 mg/kg, respectively. Also, the Hypnosis potentiation in series [7] came out at 5.97%. Besides, the Protection in series [8] and in [4] was 75% throughout. This compound registered a Sleeping time in series [13] of 69.15 min. Further, the selectivity ratio in series [12] was 6.85. The same compound yielded a median lethal dose (LD50) in series [10] of 120 mg/kg.
With `COc1ccccc1Nc1ns/c(=N\C(S)=N\c2ccc(Cl)cc2)n1-c1ccccc1OC`, the ED50 result in series [1] and in series [2] was “no protection up to 100 mg/kg” each time. Besides, the Protection in series [3] and in series [4] was 0% each time.
For the compound `Cc1ccccc1Nc1ns/c(=N\C(S)=N\c2ccc(Cl)cc2)n1-c1ccccc1C`, the ED50 entry in series [1] and in series [2] was “no protection up to 100 mg/kg” in each case. Besides, the Protection in series [3] and in series [4] was 0% each time.
Consider `CCCC(C)C1(CC)C(=O)N=C([O-])NC1=O.[Na+]` (stereo unspecified) [PENTOBARBITAL SODIUM], for which, in series [14], the Sleeping time is recorded as 65.25 min.
As for `Cc1ccc(Nc2ns/c(=N\C(S)=N\c3ccc(Cl)cc3)n2-c2ccc(C)cc2)cc1`, the median effective dose (ED50) in [5] is 46.7 mg/kg; in series [2], “no protection up to 120 mg/kg”. For the same compound, the Hypnosis potentiation in series [7] stood at 15.63%. Further, the Protection in series [3] is on record as 50%; in [4], 0%. The same compound gave a Sleeping time in [13] of 75.45 min. Further, the selectivity ratio in series [12] turned out to be 6.42. This compound also displayed a median lethal dose (LD50) in series [10] of 300 mg/kg.
Consider `S=C(/N=c1\snc(Nc2ccccc2Cl)n1-c1ccccc1Cl)Nc1ccc(Cl)cc1`, for which the results for the ED50 in series [5] and in series [6] were 12 mg/kg and 35.1 mg/kg, respectively. Besides, the Hypnosis potentiation in [7] worked out at 20.58%. The Protection in series [8] is given as 75%; in series [4], 0%. In [11], this compound had a Sleeping time of 78.68 min. For the same compound, the selectivity ratio in series [12] was determined as 14.6. The compound also returned a median lethal dose (LD50) in [10] of 175 mg/kg.
For `COc1cccc(Nc2ns/c(=N\C(S)=N\c3ccc(Cl)cc3)n2-c2cccc(OC)c2)c1`, the ED50 entry in series [1] and in [2] was “no protection up to 100 mg/kg” in each case. For the same compound, the Protection in [3] and in [4] was 0% each time.
Regarding `S=C(/N=c1\snc(Nc2ccc(Cl)cc2)n1-c1ccc(Cl)cc1)Nc1ccc(Cl)cc1`, the 50% effective dose (ED50) in [5] was 10 mg/kg; in series [6] it was 22.1 mg/kg. Also, in [7], the Hypnosis potentiation amounted to 11.58%. Moreover, the Protection stood at 87.5% in series [15] and 75% in [16]. The Sleeping time in series [13] was 72.81 min. Moreover, the selectivity ratio in series [12] came out at 11.7. In series [10], the LD50 was determined as 117 mg/kg.
With `S=C(/N=c1\snc(Nc2ccccc2)n1-c1ccccc1)Nc1ccc(Cl)cc1`, in series [5], it took a dose of 76.5 mg/kg to reach the 50% effect level (ED50). The Hypnosis potentiation in series [7] is recorded as 4.98%. Moreover, the figures for the Protection in series [3] and in [4] were 25% and 0%, respectively. This compound also returned a Sleeping time in [13] of 68.5 min. For the same compound, in series [12], the selectivity ratio was found to be 3.26. This compound also registered an LD50 in [10] of 250 mg/kg.
